Data reported in publication PMC8235719, “New RAD51 Inhibitors to Target Homologous Recombination in Human Cells” (Genes, 2021).
Read-outs that look alike come from different tables or passages of the source.

Assays:
[1] = test system: HR in human U-2 OS IndDR-GFP cells; assay: Inducible I-SceI DR-GFP assay (IndDR-GFP), inhibition of HR; assay type: cell-based
Procedure: Exponentially growing U-2 OS IndDR-GFP cells were seeded at a density of 2 × 10^5 cells/well into 6-well plates with DMEM media containing 80 µg/mL G418 and indicated concentrations of RAD51i(s). For I-SceI induced samples, the media were supplemented with 0.5 µM Shield1 (Clontech, Mountain View, CA, USA) with 100 nM triamcinolone acetonide (Sigma, St. Louis, MO, USA). After 24 h of incubation, the media were removed, cells were washed with the DMEM, and the incubation continued for 48 h in DMEM containing 100 units/mL penicillin, 100 µg/mL streptomycin, and 80 µg/mL G418. Then, cells were trypsinized, trypsin solution was neutralized with an equal volume of media, and 10% formaldehyde solution in PBS was added for fixation to reach a final concentration of formaldehyde of 3.3%. The yield of GFP-positive cells indicative of HR activity was measured by flow cytometry with the Guava easyCyte system, and the data were analyzed with the InCyte program (Millipore; Burlington, VT, USA).

[2] = biological target: T1, HsRAD51 (Homo sapiens, UniProt Q06609); assay: Surface plasmon resonance (SPR) binding to immobilized RAD51; conditions: 25 °C, equilibrium analysis, ± SD, read-out: KD, equilibrium dissociation constant of direct binding to hRAD51
T1 sequence (Q06609 1-339): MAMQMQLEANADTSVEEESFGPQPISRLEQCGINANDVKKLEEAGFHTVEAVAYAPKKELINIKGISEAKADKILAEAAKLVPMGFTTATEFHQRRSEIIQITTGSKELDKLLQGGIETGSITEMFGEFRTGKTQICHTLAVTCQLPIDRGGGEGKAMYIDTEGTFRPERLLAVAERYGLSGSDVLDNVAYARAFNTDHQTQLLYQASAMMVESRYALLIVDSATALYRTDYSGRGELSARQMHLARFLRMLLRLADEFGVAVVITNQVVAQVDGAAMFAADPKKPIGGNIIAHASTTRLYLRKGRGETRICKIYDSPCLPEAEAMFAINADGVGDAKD
Procedure: The binding of RAD51i to RAD51 was examined using a ProteOn XPR36 SPR Protein Interaction Array System (Bio-Rad, Hercules, CA, USA) at 25 °C. ProteOn GLH sensor chips were preconditioned with two 10 s pulses of 50 mM NaOH, 100 mM HCl, and 0.5% SDS followed by the system equilibration with the running buffer (20 mM sodium phosphate, 150 mM NaCl, and 0.005% Tween 20, pH 7.4). The surface of a GLH sensorchip was subsequently activated with a 1:100 dilution of a 1:1 mixture of 0.2 M EDC and 0.05 M Sulfo-NHS. Purified HsRAD51 was diluted to 500 µg/mL in 10 mM sodium acetate, pH 5.5, and injected immediately after chip activation across the ligand flow channels at 30 µL/min for 5 min. Unreacted protein was washed out, and the excess of unreacted ester groups on the sensor surface was capped by an injection of 1 M ethanolamine-HCl, pH 8.0, at 5 µL/min for 5 min. A reference surface to correct for nonspecific binding was similarly created by immobilizing an IgG b12 anti-HIV-1 gp120 antibody (IgG b12 anti-HIV-1 gp120; was obtained through the NIH AIDS Reagent Program, Division of AIDS, NIAID, NIH: Anti-HIV-1 gp120 Monoclonal (IgG1 b12) from Drs. Dennis Burton and Carlos Barbas). Serial dilutions of the compounds were prepared in the running buffer supplemented with 8% DMSO and injected at a flow rate of 100 μL/min for a 1 min association phase, followed by a 5 min dissociation phase using the “one-shot kinetics” functionality of the ProteOn instrument. Data were analyzed with ProteOn Manager Software version 3.0 (Bio-Rad; Hercules, CA, USA). The responses from the reference flow cell were subtracted to account for the non-specific binding and injection artifacts. Experiments were repeated at least three times. The equilibrium dissociation constants (KD) for the interactions were calculated in ProteOn Manager Version 3.1.0.6 (Bio-Rad; Hercules, CA, USA) using the equilibrium analysis function.

[3] = test system: MDA-MB-231 cells; assay: Cell viability assay (Guava ViaCount flow cytometry), MDA-MB-231; assay type: cell-based, human; conditions: for IC50: read-out: IC50 of cell viability
Procedure: (§1) For all cell viability experiments, except experiments involving MMS treatment, cells were seeded into the media containing indicated concentrations of tested compounds or corresponding amounts of DMSO in controls. The concentration of DMSO in media was 0.1%. MDA-MB-231 cells were seeded into 24-well plates at 3.5 × 10^4 cells/well for cells for a 4-day treatment or at 5000 cells/well for a 10-day treatment. MCF 10A cells were seeded into 24-well plates at 1.5 × 10^4 cells/well for a 4-day treatment or at 500 cells/well for a 10-day treatment. In the case of 10-day treatments, the media with compounds were renewed twice on the 4th and the 7th days of treatments. After completion of the treatments, cells were harvested, and their viability was determined by flow cytometry with Guava ViaCount reagent (Luminex; Austin, TX USA). Data were analyzed using the Guava ViaCount software (Millipore; Burlington, VT, USA). The IC50 values were calculated using the GraphPad Prism 5 software (San Diego, CA, USA).

[4] = test system: MCF 10A cells; assay: Cell viability assay (Guava ViaCount flow cytometry), MCF 10A; assay type: cell-based, human
Procedure: as §1

[5] = test system: MDA-MB-231 cells; assay: Cell viability of MDA-MB-231 after 1 h MMS treatment; assay type: cell-based, human; conditions: MDA-MB-231, 100 µM MMS 1 h
Procedure: For experiments in which MDA-MB-231 cells were treated with MMS, cells were seeded in 24-well plates at 3.5 × 10^4 cells/well. The next day, cells were treated with 100 µM MMS (Sigma, St. Louis, MO, USA) for 1 h in the presence of increasing concentrations of olaparib and 2 µM B02-iso where indicated. Then, cells were washed twice with PBS, which was followed by incubation with olaparib at indicated concentrations and 2 µM B02-iso where indicated for 4 days. After completion of the treatments, cells were harvested, and their viability was determined by flow cytometry using Guava ViaCount reagent (Luminex; Austin, TX, USA). Data were analyzed using the Guava ViaCount software (Millipore; Burlington, VT, USA).

SMILES: O=c1nc(/C=C/c2cccnc2)n(Cc2ccccc2)c2ccccc12 [B02-iso]
- IC50 ([1]; Homo sapiens, U2OS, U-2 OS IndDR-GFP cells, 24 h with compound, ± SD, read-out: IC50, efficiency of HR inhibition in IndDR-GFP assay): 4.3 ± 0.75 µM
- Improvement of potency (HR inhibition) versus B02 ([1]; IndDR-GFP IC50 of B02-iso vs B02): approximately four-fold
- Kd [2]: 14.6 ± 6.2 µM
- inhibition at 2 µM ([3]; Homo sapiens, 96 h, MDA-MB-231, 2 µM, 4-day treatment, read-out: Growth inhibition): < 5%
- IC50 ([3]; Homo sapiens, MDA-MB-231, 96 h, MDA-MB-231, 4-day treatment): 4.1 µM
- IC50 ([3]; Homo sapiens, MDA-MB-231, 240 h, MDA-MB-231, 10-day treatment, compound alone): 2.6 µM
- Effect on cell viability, compound alone ([3]; MDA-MB-231, 1.8 µM, 10-day treatment): does not impair cell viability
- Fold increase in efficiency of olaparib killing ([3]; MDA-MB-231, 10-day treatment, 1.8 µM B02-iso): 2.4 fold
- Times lower sensitivity of MCF 10A compared with MDA-MB-231 ([4]; 4-day treatment, ratio of IC50): approximately 3
- IC50 ([4]; Homo sapiens, 96 h, MCF 10A, 4-day treatment): 11.9 µM
- Effect on cell viability in combination with olaparib ([4]; MCF 10A, 1.8 µM B02-iso, same range of olaparib concentrations, 10-day treatment): did not decrease cell viability
- Sensitization of cells to B02-iso by MMS in the absence of olaparib ([5]; 4-day treatment): did not sensitize
- Effect on cell killing by MMS plus olaparib ([5]; olaparib, 2 µM B02-iso, 4 days): further significantly increased
